Data set [1] addresses T1, human recombinant PD-L1 protein (Homo sapiens, UniProt Q9NZQ7).
T1 construct: purchased FineTest P6857
The experiment in a line: Radio-SDS-PAGE molecular recognition by PD-L1 protein. It counts as binding. The note with it: radiopeptide (1 mg/mL) incubated with PD-L1 (200 µg/mL) 30 min at 37 °C; 15% SDS-PAGE, radio-TLC scan. The method, then: (§1) SDS-PAGE gel electrophoresis was performed. Radioactivity distribution was determined using a radio-TLC scanner (Mini-Gita, 60–150 keV, BGO-Crystal, window 25 × 2 mm, thickness 5 mm, resolution optimized for Tc-99m; RayTest, Munich, Germany) to detect [^99mTc]Tc-iPD-L1 and [^99mTc]Tc-WL12 binding to PD-L1 protein.
(§2) Briefly, ^99mTc-labeled WL12 and iPD-L1 solutions (100 µL) (1 mg/mL peptide) were incubated with human recombinant PD-L1 protein (100 µL) (200 µg/mL; FineTest; Cat: P6857) (radiopeptide-PD-L1 interaction) or human integrin αVβ3 protein (100 µL) (negative control; 200 µg/mL) (Chemicom, Merck; Burlington, MA, USA) (radiopeptide-integrin interaction) for 30 min at 37 °C, after which the samples were diluted with Laemmli sample buffer (containing 10% SDS, Tris-Cl 125 mM, pH = 6.8, 12.5% glycerol and 0.005% bromophenol blue after dye) to give final protein concentrations of 25 µg/mL. […] Finally, the radioactivity distribution on the gels was scanned using a radio-TLC detector to determine the percentage of [^99mTc]Tc-iPD-L1 or [^99mTc]Tc-WL12 radioactivity associated with proteins.
(§3) In vitro-specific recognition of [^99mTc]Tc-iPD-L1 and [^99mTc]Tc-WL12 by the PD-L1 protein was performed using a combination of radio-TLC and SDS-PAGE (radio-SDS-PAGE). […] Therefore, the radioactivity associated with free peptides is in the front of the gel plate (around 60–70 mm). […]

In data set [2] the target is T2, human integrin αVβ3 protein (Homo sapiens, UniProt P05106+P06756).
T2 construct: purchased Chemicom, Merck
Kind of data set: Radio-SDS-PAGE with integrin (negative control protein). The note with it: radiopeptide incubated with integrin αVβ3 (200 µg/mL) 30 min at 37 °C, radio-TLC scan. Type of data set: binding. The method, then:
as §1, §2, §3

Data set [3] is described as follows: Reversed-phase radio-HPLC retention time (lipophilicity). Type of data set: physicochemical. The conditions noted are these: µBondapak C18 3.9 mm × 30 cm, linear gradient 0.1% TFA-acetonitrile / 0.1% TFA-water in 20 min; used as measure of lipophilicity. The method, then:
For quality control of the [^99mTc]Tc-iPD-L1 and [^99mTc]Tc-WL12 formulations, parameters such as appearance (clear solution), pH (neutral), sterility, absence of bacterial endotoxins, and radiochemical purity (radio-HPLC; Waters Corporation, Milford, CT, USA; 3.9 mm × 30 cm µBondapak™ C18 column; linear gradient system; solvent A: 0.1% TFA-acetonitrile and solvent B: 0.1% TFA-water, from 100 to 30% of A in 20 min) were evaluated according to the Mexican Pharmacopoeia, in its section on “General Methods of Analysis” (MGA). The retention time of [^99mTc]Tc-WL12 was 15.0 ± 0.3 min and 15.5 ± 0.2 min for [^99mTc]Tc-iPD-L1, while the retention times of ^99mTcO4^− and [^99mTc]Tc-EDDA/tricine were 3.5 ± 0.2 min and 4.5 ± 0.2 min, respectively.
The radiochemical purities of [^99mTc]Tc-iPD-L1 and [^99mTc]Tc-WL12 were 95.5 ± 1.5% without the need for additional purification, as determined by reversed-phase radio-HPLC (Figure 8). As expected, the retention time of [^99mTc]Tc-iPD-L1 was higher than that of [^99mTc]Tc-WL12, which is associated with their CLogP values of 6.38 and 5.78, respectively.
Figure 8 Radio-chromatogram of (a) [^99mTc]Tc-iPD-L1 and (b) [^99mTc]Tc-WL12. Reversed-phase column (C18, 3.9 × 300 mm, 10µm particle size).

One compound from paper PMC10747430, “^99mTc-Labeled Cyclic Peptide Targeting PD-L1 as a Novel Nuclear Imaging Probe” (Pharmaceutics, 2023) can be followed below.

T2 sequence (P06756 31-889 limits assumed): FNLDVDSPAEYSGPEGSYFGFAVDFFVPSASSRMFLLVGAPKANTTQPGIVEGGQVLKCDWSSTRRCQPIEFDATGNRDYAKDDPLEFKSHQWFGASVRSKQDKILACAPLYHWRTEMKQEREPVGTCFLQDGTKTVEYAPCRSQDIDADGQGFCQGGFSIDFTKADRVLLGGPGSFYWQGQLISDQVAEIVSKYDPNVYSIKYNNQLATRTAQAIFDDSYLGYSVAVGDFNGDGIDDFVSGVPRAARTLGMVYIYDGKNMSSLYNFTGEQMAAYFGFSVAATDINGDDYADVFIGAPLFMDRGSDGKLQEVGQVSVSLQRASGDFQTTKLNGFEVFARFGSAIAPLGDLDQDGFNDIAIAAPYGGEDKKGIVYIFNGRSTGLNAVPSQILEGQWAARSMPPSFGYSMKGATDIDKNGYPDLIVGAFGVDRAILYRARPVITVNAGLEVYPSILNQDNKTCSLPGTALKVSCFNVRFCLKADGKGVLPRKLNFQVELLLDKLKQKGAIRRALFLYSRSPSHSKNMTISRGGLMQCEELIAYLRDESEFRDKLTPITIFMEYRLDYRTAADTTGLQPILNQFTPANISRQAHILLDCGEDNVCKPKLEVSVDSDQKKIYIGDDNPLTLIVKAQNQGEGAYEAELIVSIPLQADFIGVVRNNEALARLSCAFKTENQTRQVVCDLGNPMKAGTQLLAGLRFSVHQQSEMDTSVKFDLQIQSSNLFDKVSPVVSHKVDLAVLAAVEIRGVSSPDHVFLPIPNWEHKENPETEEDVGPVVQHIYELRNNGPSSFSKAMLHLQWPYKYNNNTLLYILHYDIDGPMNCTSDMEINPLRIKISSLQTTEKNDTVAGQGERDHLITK
T2 sequence (P06756 891-1048 limits assumed): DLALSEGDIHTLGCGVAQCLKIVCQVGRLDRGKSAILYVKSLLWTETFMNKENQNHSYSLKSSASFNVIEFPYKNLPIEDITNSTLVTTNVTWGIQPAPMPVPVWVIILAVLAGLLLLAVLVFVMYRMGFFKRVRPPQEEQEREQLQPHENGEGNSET
T2 sequence (P05106 27-788): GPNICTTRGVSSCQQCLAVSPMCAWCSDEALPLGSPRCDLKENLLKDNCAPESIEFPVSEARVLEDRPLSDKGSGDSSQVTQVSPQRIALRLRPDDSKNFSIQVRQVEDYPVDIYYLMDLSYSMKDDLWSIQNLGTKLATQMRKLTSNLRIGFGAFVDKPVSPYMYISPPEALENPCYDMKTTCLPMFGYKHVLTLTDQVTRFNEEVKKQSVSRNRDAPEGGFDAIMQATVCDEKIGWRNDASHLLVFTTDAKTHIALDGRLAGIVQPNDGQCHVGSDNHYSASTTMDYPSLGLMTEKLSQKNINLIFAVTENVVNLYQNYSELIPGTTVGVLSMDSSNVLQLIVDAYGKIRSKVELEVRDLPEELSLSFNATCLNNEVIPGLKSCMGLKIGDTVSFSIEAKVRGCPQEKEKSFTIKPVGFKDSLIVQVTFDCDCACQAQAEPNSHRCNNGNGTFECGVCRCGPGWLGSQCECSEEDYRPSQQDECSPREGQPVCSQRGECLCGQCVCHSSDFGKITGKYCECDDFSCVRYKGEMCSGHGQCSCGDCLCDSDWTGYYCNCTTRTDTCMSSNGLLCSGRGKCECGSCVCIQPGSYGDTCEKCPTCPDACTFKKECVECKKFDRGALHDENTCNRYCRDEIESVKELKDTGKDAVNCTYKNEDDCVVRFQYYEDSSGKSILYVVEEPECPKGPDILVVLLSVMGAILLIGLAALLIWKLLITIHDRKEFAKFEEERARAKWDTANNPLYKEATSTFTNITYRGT
T1 sequence (Q9NZQ7 19-290): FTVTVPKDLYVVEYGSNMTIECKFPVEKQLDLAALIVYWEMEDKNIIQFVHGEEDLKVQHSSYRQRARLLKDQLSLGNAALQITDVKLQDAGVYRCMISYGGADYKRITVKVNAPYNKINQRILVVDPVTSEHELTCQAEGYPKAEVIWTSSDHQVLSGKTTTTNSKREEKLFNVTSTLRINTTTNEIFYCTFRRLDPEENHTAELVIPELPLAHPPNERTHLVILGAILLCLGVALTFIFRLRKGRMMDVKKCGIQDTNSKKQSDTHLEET

With `CCCC[C@H]1C(=O)N(C)[C@@H](CCCC)C(=O)N[C@@H](CCCNC(=O)c2ccc(NN)nc2)C(=O)N[C@H](C(=O)NCC(N)=O)CSCC(=O)N[C@@H](Cc2ccc(O)cc2)C(=O)N(C)[C@@H](C)C(=O)N[C@@H](CC(N)=O)C(=O)N2CCC[C@H]2C(=O)N[C@@H](Cc2c[nH]cn2)C(=O)N[C@@H](CC(C)C)C(=O)N2C[C@H](O)C[C@H]2C(=O)N[C@@H](Cc2c[nH]c3ccccc23)C(=O)N[C@@H](CO)C(=O)N[C@@H](Cc2cn(C)c3ccccc23)C(=O)N1C` [[^99mTc]Tc-WL12, metal not drawn], in data set [1], the “radioactivity detected at the distance associated with the PD-L1 protein” value is 14%. The “shift in radioactivity with integrin (negative control)” value in data set [2] is given as “no shift in radioactivity”. Also, the “retention time, reversed-phase radio-HPLC” value in data set [3] is reported as 15.0 ± 0.3 min.
